Test [1] addresses T1, NIH-3T3 cells overexpressing human IR (Homo sapiens, UniProt P06213).
T1 construct: expressed in transfected cells; host or cells: NIH-3T3 (mouse fibroblasts)
Nature of the test: IR cellular autophosphorylation (DELFIA). In kind it is cell-based. Conditions: 2 h compound, insulin 3 ug/ml for 15 minutes, IC50 category. How it is done: NIH-3T3 cells overexpressing human IGF-1R or IR were plated in 96-well plates (10,000 cells/well) in culture media containing 10% fetal bovine serum and incubated at 37° C. in a 5% CO2 incubator. Twenty four hours post-plating, cells were treated with different concentrations of test compounds ranging from 30 uM to 1.5 nM. Two hours after compound addition, cells were stimulated with either human IGF-1 (30 ng/ml) or insulin (3 ug/ml) for 15 minutes. Cell lysates are analyzed for phosphorylated receptors using dissociation enhanced lanthanide fluor-immuno assay (DELFIA) with anti-IGF-1R (MAB391, R&D Systems, Minneapolis, Minn.) or anti-IRβ (sc-711, Santa Cruz Biotechnology, Santa Cruz, Calif.) capture antibody and europium-labeled anti-pTyr antibody (Eu-N1 PT66, Perkin Elmer, Waltham, Mass.) for detection. The fluorescence signal for cells treated with compounds was expressed as percent relative to 100% stimulation (IGF-1 or insulin stimulated signal).

For a further test, the system named is Colo205. Nature of the test: Inhibition of cell proliferation (CellTiter-Glo or InCell analyzer), Colo205. Format: cell-based. The note with it: Homo sapiens, COLO 205, 72 h / 3 days, values given as IC50 category. How it is done: Cell proliferation was measured by either CellTiter-Glo (measures cellular ATP level as a surrogate for total cell number) or by InCell analyzer (counts number of nuclei as a measure of cell number).
For CellTiter-Glo assay, exponentially growing cell lines of different tumor origins, cultured in appropriate media containing 10% fetal bovine serum at 37° C. in a 5% CO2 incubator, were plated at low density (less than 2000cells/well) in 96-well plates. Twenty four hours post-plating, cells were treated with different concentrations of test compounds ranging from 30 uM to 1.5 nM. Several wells were left untreated as a control. Seventy two hours post-treatment, cell numbers were determined using 50-100 ul per well of CellTiter-Glo (Promega #G7573). Plates were incubated at 37° C. for 30 minutes and the chemiluminescent signal was read on the Victor V or Envison 2100 reader.
For InCell Analyser assay, various cell lines of different tumor origins were grown to 70-80% confluency in appropriate culture media containing 10% fetal bovine serum at 37° C. in a 5% CO2 incubator. On day −1, cells were seeded at 2 densities in 384-well plates and incubated at 37° C. overnight. Stock compound plates were prepared in advance which contained dimethyl sulfoxide (DMSO) alone and a 9-point half-log decreasing dose range of the compound in DMSO. The compound plates were stored at −80° C. and each plate was only thawed once and used. On day 0, the main assay plates received compound or DMSO via a sonic delivery system (ECHO). The highest final concentration of compound of the dose range in the culture plates was 10 uM. These plates were cultured at 37° C. for 3 days. […] On day 3, the compound treated plates were stained and fixed to measure proliferation, apoptosis, and mitotic index using an InCelL1000 analyser. A nuclear stain was used to identify cells in the wells. By counting the number of nuclei, the proliferation index of compound treated groups were calculated as a percentage relative to the DMSO control, which was set to 100%. The IC50 values were calculated using model 205 in ExcelFit.
IC50 (nM) values for compounds of select examples were categorized by relative inhibition of cell proliferation.

For test [2], the target named is T2, NIH-3T3 cells overexpressing human IGF-1R (Homo sapiens, UniProt P08069).
T2 construct: expressed in transfected cells; host or cells: NIH-3T3 (mouse fibroblasts)
T2 sequence (P08069 31-1367): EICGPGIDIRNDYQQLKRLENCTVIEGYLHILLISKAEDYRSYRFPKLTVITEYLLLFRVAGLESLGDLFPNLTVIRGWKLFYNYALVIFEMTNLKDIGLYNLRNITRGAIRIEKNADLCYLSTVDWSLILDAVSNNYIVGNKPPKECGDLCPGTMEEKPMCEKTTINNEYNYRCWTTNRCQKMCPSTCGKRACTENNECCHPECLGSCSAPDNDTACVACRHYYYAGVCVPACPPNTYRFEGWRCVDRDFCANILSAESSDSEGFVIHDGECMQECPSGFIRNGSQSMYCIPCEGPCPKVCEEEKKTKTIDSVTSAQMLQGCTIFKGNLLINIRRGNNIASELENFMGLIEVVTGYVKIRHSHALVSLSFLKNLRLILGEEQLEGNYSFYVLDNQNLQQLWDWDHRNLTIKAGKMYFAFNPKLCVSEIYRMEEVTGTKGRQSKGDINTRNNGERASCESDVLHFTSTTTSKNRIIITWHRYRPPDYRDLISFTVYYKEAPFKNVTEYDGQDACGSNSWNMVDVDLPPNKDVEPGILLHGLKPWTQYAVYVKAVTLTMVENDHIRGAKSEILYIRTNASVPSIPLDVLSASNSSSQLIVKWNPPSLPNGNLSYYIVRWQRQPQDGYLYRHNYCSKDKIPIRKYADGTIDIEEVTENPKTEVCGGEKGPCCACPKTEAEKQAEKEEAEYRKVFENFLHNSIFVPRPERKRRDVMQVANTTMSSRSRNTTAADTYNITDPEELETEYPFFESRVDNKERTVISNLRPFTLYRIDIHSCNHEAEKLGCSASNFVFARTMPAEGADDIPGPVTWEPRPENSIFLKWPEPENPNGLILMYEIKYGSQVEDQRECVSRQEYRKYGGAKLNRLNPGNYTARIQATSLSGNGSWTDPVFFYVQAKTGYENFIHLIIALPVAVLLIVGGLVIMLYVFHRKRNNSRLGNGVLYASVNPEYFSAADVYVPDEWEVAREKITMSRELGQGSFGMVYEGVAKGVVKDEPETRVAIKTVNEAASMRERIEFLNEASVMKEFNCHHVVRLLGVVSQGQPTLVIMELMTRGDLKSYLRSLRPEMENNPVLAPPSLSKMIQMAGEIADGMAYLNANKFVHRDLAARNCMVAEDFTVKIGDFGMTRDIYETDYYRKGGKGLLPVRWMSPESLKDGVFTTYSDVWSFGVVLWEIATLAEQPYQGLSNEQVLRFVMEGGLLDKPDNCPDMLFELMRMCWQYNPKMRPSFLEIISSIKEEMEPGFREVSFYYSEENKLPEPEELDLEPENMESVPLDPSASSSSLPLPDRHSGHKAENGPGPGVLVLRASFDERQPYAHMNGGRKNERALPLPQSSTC
Nature of the test: IGF-1R cellular autophosphorylation (DELFIA). Format: cell-based. Put shortly:
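Receptor autophosphorylation measured by DELFIA, capturing IGF-1R or IRβ and detecting with europium anti-pTyr, reported as percent of IGF-1- or insulin-stimulated signal. Compounds (30 uM to 1.5 nM) added 2 h before ligand, then 15 min stimulation (IGF-1 30 ng/ml or insulin 3 ug/ml).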

For another test, the target named is T3, human IGF1R (hIGF1R) (Homo sapiens, UniProt P08069).
T3 construct: containing amino acid residues 957-1367 of human IGF1R; made in house; host or cells: Sf9 cells (baculovirus)
T3 sequence (P08069 957-1367): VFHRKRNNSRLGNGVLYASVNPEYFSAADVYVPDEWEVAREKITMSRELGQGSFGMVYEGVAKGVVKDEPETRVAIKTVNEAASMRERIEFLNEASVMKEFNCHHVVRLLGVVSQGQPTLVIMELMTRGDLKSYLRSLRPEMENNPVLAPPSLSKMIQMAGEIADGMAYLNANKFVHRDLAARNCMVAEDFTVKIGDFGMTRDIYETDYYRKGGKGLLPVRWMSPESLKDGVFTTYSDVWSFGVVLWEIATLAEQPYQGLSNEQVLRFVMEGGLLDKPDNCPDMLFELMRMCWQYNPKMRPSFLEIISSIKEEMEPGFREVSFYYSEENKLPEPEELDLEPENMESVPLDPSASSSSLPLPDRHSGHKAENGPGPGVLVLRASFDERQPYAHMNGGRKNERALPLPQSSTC
Nature of the test: TR-FRET kinase assay of purified hIGF1R. In kind it is biochemical. The note with it: activated hIGF1R 0.5 nM, 10 μM ATP, values given as pIC50 category, read-out: IGF-1R pIC50 (converted). (In general: In TR-FRET formats the signal depends on donor and acceptor labels being close together.)

The target of a further test is T4, human IR (hIR) (Homo sapiens, UniProt P06213).
T4 construct: containing amino acid residues 979-1382 of human IR; made in house; host or cells: Sf9 cells (baculovirus), same process as hIGF1R
T4 sequence (P06213 979-1382): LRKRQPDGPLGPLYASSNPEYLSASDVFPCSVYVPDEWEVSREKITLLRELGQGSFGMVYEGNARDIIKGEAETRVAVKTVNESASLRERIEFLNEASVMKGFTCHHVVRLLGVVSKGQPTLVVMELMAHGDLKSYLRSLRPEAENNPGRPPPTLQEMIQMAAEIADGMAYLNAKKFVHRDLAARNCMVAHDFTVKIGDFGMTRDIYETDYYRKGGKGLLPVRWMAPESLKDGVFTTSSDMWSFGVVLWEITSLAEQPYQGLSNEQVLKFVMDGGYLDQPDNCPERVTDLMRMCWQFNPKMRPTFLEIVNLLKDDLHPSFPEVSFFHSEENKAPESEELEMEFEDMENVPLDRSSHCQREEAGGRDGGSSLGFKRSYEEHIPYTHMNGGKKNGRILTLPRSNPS
As to the kind of experiment: TR-FRET kinase assay of purified hIR. Format: biochemical. Conditions: activated hIR 0.5 nM, 10 μM ATP, values given as pIC50 category.

The target in the next test is ALK (Homo sapiens, UniProt Q9UM73). Nature of the test: ALK enzyme assay (HTRF). Format: biochemical. Conditions: 0.25 nM ALK, 15.0 μM ATP, values given as pIC50 category. Put shortly: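 Final compound range 0.00017 to 10 μM (twelve 1:3 dilutions). Kinase reaction with ATP and biotinylated synthetic peptide runs 120 min at 20° C, stopped with EDTA; phosphotyrosine detected by HTRF after 60 min. Inhibition referenced to DMSO (1%) and EDTA (0.1 M) controls, curve-fitted.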
Sequence of ALK (Q9UM73 19-1620): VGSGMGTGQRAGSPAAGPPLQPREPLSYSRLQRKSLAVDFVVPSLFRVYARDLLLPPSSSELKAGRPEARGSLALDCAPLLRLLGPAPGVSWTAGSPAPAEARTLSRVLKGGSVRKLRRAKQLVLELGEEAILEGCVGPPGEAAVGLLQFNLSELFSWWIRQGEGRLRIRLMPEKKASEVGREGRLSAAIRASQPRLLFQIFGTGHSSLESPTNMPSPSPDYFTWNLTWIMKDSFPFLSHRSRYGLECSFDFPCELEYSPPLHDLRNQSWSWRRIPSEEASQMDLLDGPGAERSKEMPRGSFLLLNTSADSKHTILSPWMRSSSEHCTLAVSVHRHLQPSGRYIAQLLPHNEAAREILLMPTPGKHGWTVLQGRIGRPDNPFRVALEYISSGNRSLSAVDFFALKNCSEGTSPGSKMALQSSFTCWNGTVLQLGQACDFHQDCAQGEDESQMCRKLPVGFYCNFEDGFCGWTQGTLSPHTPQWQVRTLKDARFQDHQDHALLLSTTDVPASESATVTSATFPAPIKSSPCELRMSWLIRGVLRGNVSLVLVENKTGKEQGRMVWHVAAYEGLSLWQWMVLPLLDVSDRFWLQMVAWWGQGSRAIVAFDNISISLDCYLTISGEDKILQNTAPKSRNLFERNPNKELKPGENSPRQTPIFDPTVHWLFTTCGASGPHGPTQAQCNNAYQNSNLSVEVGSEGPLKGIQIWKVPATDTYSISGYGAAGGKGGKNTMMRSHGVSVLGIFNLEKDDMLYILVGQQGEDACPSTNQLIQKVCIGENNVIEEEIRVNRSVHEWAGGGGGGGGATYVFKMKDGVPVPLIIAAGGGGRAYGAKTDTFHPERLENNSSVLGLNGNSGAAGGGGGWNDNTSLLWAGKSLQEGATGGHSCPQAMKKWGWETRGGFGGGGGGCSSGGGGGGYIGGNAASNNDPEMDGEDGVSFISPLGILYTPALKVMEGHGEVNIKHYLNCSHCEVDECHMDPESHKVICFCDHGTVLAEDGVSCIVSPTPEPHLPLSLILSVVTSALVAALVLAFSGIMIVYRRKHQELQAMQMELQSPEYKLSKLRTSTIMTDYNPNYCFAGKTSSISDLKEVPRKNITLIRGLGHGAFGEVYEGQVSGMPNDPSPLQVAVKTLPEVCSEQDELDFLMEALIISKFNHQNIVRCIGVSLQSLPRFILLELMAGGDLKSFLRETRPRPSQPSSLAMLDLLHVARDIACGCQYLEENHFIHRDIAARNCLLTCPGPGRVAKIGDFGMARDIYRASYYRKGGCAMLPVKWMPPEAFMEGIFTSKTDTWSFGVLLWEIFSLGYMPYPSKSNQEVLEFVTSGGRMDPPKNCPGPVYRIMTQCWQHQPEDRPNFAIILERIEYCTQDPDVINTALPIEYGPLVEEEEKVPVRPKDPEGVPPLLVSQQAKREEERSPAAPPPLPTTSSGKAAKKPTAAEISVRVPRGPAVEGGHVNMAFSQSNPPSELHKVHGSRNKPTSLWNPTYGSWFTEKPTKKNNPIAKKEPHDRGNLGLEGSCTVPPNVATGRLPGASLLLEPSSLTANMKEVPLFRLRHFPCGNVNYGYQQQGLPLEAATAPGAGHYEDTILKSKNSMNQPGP

SMILES strings stand for the structures.

The text below walks through data of patent US7981903B2, “2-[2-{phenylamino}-1H-pyrrolo[2,3-D]pyrimidin-4-yl)amino] benzamide derivatives as IGF-1R inhibitors for the treatment of cancer” (GlaxoSmithKline LLC, priority 2007, dated 2011).

T1 sequence (P06213 28-1382): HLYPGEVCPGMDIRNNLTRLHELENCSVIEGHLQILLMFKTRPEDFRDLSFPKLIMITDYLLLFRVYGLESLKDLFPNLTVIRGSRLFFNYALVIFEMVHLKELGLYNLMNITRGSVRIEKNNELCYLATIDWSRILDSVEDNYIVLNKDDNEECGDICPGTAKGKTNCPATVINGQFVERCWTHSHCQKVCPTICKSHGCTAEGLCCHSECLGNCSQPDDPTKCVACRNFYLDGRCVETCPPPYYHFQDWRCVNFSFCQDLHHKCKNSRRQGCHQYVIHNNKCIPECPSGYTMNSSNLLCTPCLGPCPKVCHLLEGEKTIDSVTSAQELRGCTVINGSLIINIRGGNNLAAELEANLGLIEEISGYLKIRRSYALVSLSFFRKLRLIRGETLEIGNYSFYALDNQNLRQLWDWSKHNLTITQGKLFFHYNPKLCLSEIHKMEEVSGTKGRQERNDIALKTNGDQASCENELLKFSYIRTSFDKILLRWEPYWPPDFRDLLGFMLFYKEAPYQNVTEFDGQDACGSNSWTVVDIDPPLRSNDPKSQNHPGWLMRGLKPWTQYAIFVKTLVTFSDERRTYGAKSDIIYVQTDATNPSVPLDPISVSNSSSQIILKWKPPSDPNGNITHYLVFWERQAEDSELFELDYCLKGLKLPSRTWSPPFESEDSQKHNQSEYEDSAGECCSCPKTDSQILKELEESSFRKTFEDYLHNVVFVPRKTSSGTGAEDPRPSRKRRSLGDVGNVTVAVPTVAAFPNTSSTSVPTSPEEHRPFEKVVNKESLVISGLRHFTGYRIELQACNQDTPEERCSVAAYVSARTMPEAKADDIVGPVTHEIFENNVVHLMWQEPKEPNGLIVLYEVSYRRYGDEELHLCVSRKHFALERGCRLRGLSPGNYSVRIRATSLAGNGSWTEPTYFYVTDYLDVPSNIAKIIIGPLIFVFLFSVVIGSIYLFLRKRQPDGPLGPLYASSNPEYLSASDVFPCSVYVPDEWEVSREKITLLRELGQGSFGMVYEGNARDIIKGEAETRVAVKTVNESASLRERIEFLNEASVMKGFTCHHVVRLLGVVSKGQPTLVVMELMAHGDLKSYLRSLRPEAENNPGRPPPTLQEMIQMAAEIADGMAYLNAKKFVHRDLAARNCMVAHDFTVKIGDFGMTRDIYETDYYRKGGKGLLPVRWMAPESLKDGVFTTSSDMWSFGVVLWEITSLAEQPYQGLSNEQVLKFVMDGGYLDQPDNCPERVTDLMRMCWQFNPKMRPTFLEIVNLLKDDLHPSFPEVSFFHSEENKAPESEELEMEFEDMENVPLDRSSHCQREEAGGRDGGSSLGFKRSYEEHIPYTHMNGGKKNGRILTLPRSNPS

On to `CCc1cc(N2CCN(C(C)C)CC2)ccc1Nc1nc(Nc2cc(F)ccc2C(N)=O)c2cc[nH]c2n1` [Example 69, 2-{[2-({2-ethyl-4-[4-(1-methylethyl)-1-piperazinyl]phenyl}amino)-1H-pyrrolo[2,3-d]pyrimidin-4-yl]amino}-4-fluorobenzamide], for which the IC50 in test [1] was 100 to 500 nM; with Colo205, 250 to 1000 nM; in test [2], 100 to 500 nM; at human IGF1R (hIGF1R), 1.26 to 3.98 nM; on human IR (hIR), 1.26 to 3.98 nM.

As to `Cc1ccc(NC(=O)CN(C)C)cc1Nc1nc(Nc2ccccc2C(=O)NCc2ccc(F)cc2)c2cc[nH]c2n1` [Example 27, 2-{[2-({5-[(N,N-dimethylglycyl)amino]-2-methylphenyl}amino)-1H-pyrrolo[2,3-d]pyrimidin-4-yl]amino}-N-[(4-fluorophenyl)methyl]benzamide], the IC50 in test [1] was greater than 500 nM; in test [2], greater than 500 nM; at human IGF1R (hIGF1R), 5.01 to 200 nM; on human IR (hIR), 1.26 to 3.98 nM; on ALK, 5.01 to 200 nM.

`COc1cc(N2CCOC[C@@H]2C)ccc1Nc1nc(Nc2cc(F)cc(F)c2C(N)=O)c2cc[nH]c2n1` [Example 90, 2,4-difluoro-6-[(2-{[4-[(3S)-3-methyl-4-morpholinyl]-2-(methyloxy)phenyl]amino}-1H-pyrrolo[2,3-d]pyrimidin-4-yl)amino]benzamide]: the IC50 in test [1] was less than 100 nM; in the test with Colo205, 250 to 1000 nM; in test [2], less than 100 nM; at human IGF1R (hIGF1R), 1.26 to 3.98 nM; at human IR (hIR), 1.26 to 3.98 nM.

Regarding `CCCN1CCC=C(c2ccc(Nc3nc(Nc4ccc(Cl)cc4C(N)=O)c4cc[nH]c4n3)c(OC)c2)C1` [Example 108, 5-chloro-2-[(2-{[2-(methyloxy)-4-(1-propyl-1,2,5,6-tetrahydro-3-pyridinyl)phenyl]amino}-1H-pyrrolo[2,3-d]pyrimidin-4-yl)amino]benzamide], the IC50 in test [1] is 100 to 500 nM; in test [2] it was 100 to 500 nM; on human IGF1R (hIGF1R), 0.251 to 1 nM; on human IR (hIR) it was 0.251 to 1 nM; on ALK it was 0.251 to 1 nM.

With `CNC(=O)c1c(F)cc(Cl)cc1Nc1nc(Nc2cc3c(cc2OC)CCN3C(=O)CN(C)C)nc2[nH]ccc12` [Example 120, 4-chloro-2-[(2-{[1-(N,N-dimethylglycyl)-5-(methyloxy)-2,3-dihydro-1H-indol-6-yl]amino}-1H-pyrrolo[2,3-d]pyrimidin-4-yl)amino]-6-fluoro-N-methylbenzamide], the IC50 in test [1] was 100 to 500 nM; in test [2] it was 100 to 500 nM; on human IGF1R (hIGF1R), 0.251 to 1 nM; at human IR (hIR) it was 0.251 to 1 nM; on ALK it was 0.251 to 1 nM.

In the case of `COc1cc(N2CCN(C(C)C)CC2)ccc1Nc1nc(Nc2ccc(F)cc2C(=O)NCCO)c2cc[nH]c2n1` [Example 66, 5-fluoro-N-(2-hydroxyethyl)-2-[(2-{[4-[4-(1-methylethyl)-1-piperazinyl]-2-(methyloxy)phenyl]amino}-1H-pyrrolo[2,3-d]pyrimidin-4-yl)amino]benzamide], the IC50 in test [1] was greater than 500 nM; with Colo205 it was less than 250 nM; in test [2] it was greater than 500 nM; at human IGF1R (hIGF1R), 5.01 to 200 nM; against ALK it was 1.26 to 3.98 nM.

Turning to `CNC(=O)c1c(F)cccc1Nc1nc(Nc2cc(NC(=O)CN(C)C)c(C)cc2OC)nc2[nH]ccc12` [Example 256, 2-[(2-{[5-[(N,N-dimethylglycyl)amino]-4-methyl-2-(methyloxy)phenyl]amino}-1H-pyrrolo[2,3-d]pyrimidin-4-yl)amino]-6-fluoro-N-methylbenzamide], the IC50 in test [1] was 100 to 500 nM; in test [2], less than 100 nM; on human IGF1R (hIGF1R), 0.251 to 1 nM; against human IR (hIR), 0.251 to 1 nM; against ALK it was 0.251 to 1 nM.

Regarding `CCCN1CCCC(c2ccc(Nc3nc(Nc4cccc(OC)c4C(N)=O)c4cc[nH]c4n3)c(OC)c2)C1` (centres unmarked) [Example 36, 2-(methyloxy)-6-[(2-{[2-(methyloxy)-4-(1-propyl-3-piperidinyl)phenyl]amino}-1H-pyrrolo[2,3-d]pyrimidin-4-yl)amino]benzamide], the IC50 was 100 to 500 nM in test [1]; 100 to 500 nM in test [2]; 1.26 to 3.98 nM on human IGF1R (hIGF1R); 1.26 to 3.98 nM on human IR (hIR); 1.26 to 3.98 nM on ALK.

Take `CNC(=O)c1cc(F)ccc1Nc1nc(Nc2ccc(N3CCN(C(C)C)CC3)cc2OC)nc2[nH]ccc12` [Example 65, 5-fluoro-N-methyl-2-[(2-{[4-[4-(1-methylethyl)-1-piperazinyl]-2-(methyloxy)phenyl]amino}-1H-pyrrolo[2,3-d]pyrimidin-4-yl)amino]benzamide]: the IC50 in test [1] is 100 to 500 nM; in the test on Colo205 it was 250 to 1000 nM; in test [2], 100 to 500 nM; on human IGF1R (hIGF1R) it was 1.26 to 3.98 nM; at ALK, 1.26 to 3.98 nM.

Regarding `CCCN1CCC=C(c2ccc(Nc3nc(Nc4ccccc4C(=O)NC)c4cc[nH]c4n3)c(OC)c2)C1` [Example 23, N-methyl-2-[(2-{[2-(methyloxy)-4-(1-propyl-1,2,5,6-tetrahydro-3-pyridinyl)phenyl]amino}-1H-pyrrolo[2,3-d]pyrimidin-4-yl)amino]benzamide], the IC50 was 100 to 500 nM in test [1]; 100 to 500 nM in test [2]; 1.26 to 3.98 nM at human IGF1R (hIGF1R); 0.251 to 1 nM against human IR (hIR); 0.251 to 1 nM against ALK.

In the case of `CNC(=O)c1c(F)cccc1Nc1nc(Nc2cc3c(cc2OC)C[C@H](C)N3C(=O)CN(C)C)nc2[nH]ccc12` [Example 251, 2-[(2-{[(2S)-1-(N,N-dimethylglycyl)-2-methyl-5-(methyloxy)-2,3-dihydro-1H-indol-6-yl]amino}-1H-pyrrolo[2,3-d]pyrimidin-4-yl)amino]-6-fluoro-N-methylbenzamide], the IC50 in test [1] was less than 100 nM; in test [2], less than 100 nM; on human IGF1R (hIGF1R), 1.26 to 3.98 nM; at human IR (hIR) it was 1.26 to 3.98 nM; against ALK, 0.251 to 1 nM.

With `COc1cc2c(cc1Nc1nc(Nc3cccc(F)c3C(N)=O)c3cc[nH]c3n1)N(C(=O)CN(C)C)[C@@H](C)C2` [Example 249, 2-[(2-{[(2S)-1-(N,N-dimethylglycyl)-2-methyl-5-(methyloxy)-2,3-dihydro-1H-indol-6-yl]amino}-1H-pyrrolo[2,3-d]pyrimidin-4-yl)amino]-6-fluorobenzamide], the IC50 is less than 100 nM in test [1]; less than 100 nM in test [2]; 0.251 to 1 nM on human IGF1R (hIGF1R); 0.251 to 1 nM against human IR (hIR); 1.26 to 3.98 nM on ALK.

For the molecule `Cc1ccc(NC(=O)CN(C)C)cc1Nc1nc(Nc2ccc(F)cc2C(N)=O)c2cc[nH]c2n1` [Example 62, 2-{[2-({5-[(N,N-dimethylglycyl)amino]-2-methylphenyl}amino)-1H-pyrrolo[2,3-d]pyrimidin-4-yl]amino}-5-fluorobenzamide], the IC50 was 100 to 500 nM in test [1]; 100 to 500 nM in test [2]; 1.26 to 3.98 nM at human IGF1R (hIGF1R); 0.251 to 1 nM on human IR (hIR); 5.01 to 200 nM at ALK.
